In brackets after ≈: the same amount, converted by molar mass. Read-outs that look alike come from different tables or passages of the source.
How the values were obtained:
[1] = pH-dependent dissolution profile (equilibrium solubility) of ART-001 in buffers pH 1 to 10, HPLC; format: physicochemical; conditions: for solubility: aqueous buffer, thermodynamic from solid, room temperature
Protocol: The dissolution profile of ART-001 in various pH environments was tested by the following procedure. Excess amounts of ART-001 were added to 50 mM phosphate buffer (pH 1, 2, 7, and 8), citrate buffer (pH 3, 4, 5, and 6), boric acid buffer (pH 9), and bicarbonate buffer (pH 10), with the pH adjusted variously in the range of from pH 1 to pH 10 with a 6N HCl or 10N sodium hydroxide solution, and stirred at room temperature. When the dissolved state reached equilibrium, a fixed amount of each sample was taken. After centrifugation at 1000 rpm for 10 minutes, the supernatant was collected and measured by HPLC. The pH at the beginning and end of dissolution were also measured and recorded.

[2] = cited from earlier work
[3] = healthy adults, cited from earlier work
advanced solid tumors = conditions: Phase I, patients with advanced solid tumors; cited from earlier work
[4] = cited from earlier work; remark: listed apart in the source
[5] = cited from earlier work; remark: listed apart in the source

## Nc1nc2cc(-c3ccc4ncc(C(=O)N5CCOCC5)n4c3)ccc2o1 [ART-001, Serabelisib]
[1]; bicarbonate buffer, start pH 10.00, end pH 10.07, read-out: Solubility
  solubility: 2.18 µg/mL (≈ 6 µM)
[1]; boric acid buffer, start pH 9.00, end pH 9.16, read-out: Solubility
  solubility: 1.3 µg/mL (≈ 3.58 µM)
[1]; citrate buffer, start pH 3.17, end pH 3.33, read-out: Solubility
  solubility: 36.8 µg/mL (≈ 101 µM)
[1]; citrate buffer, start pH 4.00, end pH 4.19, read-out: Solubility
  solubility: 5.7 µg/mL (≈ 15.7 µM)
[1]; citrate buffer, start pH 5.03, end pH 5.2, read-out: Solubility
  solubility: 1.7 µg/mL (≈ 4.68 µM)
[1]; citrate buffer, start pH 5.95, end pH 6.11, read-out: Solubility
  solubility: 1.3 µg/mL (≈ 3.58 µM)
[1]; citrate, phosphate, boric acid and bicarbonate buffers, pH 6 or higher, read-out: solubility under high pH conditions
  solubility: 1.3 µg/mL (≈ 3.58 µM)
[1]; pH 6 or higher vs pH 2.5 or lower
  solubility under high pH conditions when the solubility under low pH conditions is considered to be 100%: about 4%
[1]; phosphate buffer, pH 2.5 or lower, read-out: solubility under low pH conditions
  solubility: 312 to 10000 µg/mL (≈ 859 to 27500 µM)
[1]; phosphate buffer, start pH 1.04, end pH 1.33, read-out: Solubility
  solubility: 1140 µg/mL (≈ 3130 µM)
[1]; phosphate buffer, start pH 2.09, end pH 2.56, read-out: Solubility
  solubility: 312 µg/mL (≈ 859 µM)
[1]; phosphate buffer, start pH 6.81, end pH 6.97, read-out: Solubility
  solubility: 1.2 µg/mL (≈ 3.3 µM)
[1]; phosphate buffer, start pH 8.15, end pH 8.3, read-out: Solubility
  solubility: 1.3 µg/mL (≈ 3.58 µM)
[2]; acidic solutions
  solubility in acidic solutions: high solubility
[2]; neutral to basic solutions
  solubility in neutral to basic solutions: extremely low solubility
[3]; co-administration of proton pump inhibitor (lansoprazole), stomach pH neutral
  absorption of ART-001: markedly decreased
[3]
  pharmacokinetic variability: significant pharmacokinetic variability
Advanced solid tumors
  therapeutic efficacy: limited therapeutic efficacy
  variability in pharmacokinetics: high degree of variability

## Cc1nc(NC(=O)N2CCC[C@H]2C(N)=O)sc1-c1ccnc(C(C)(C)C(F)(F)F)c1 [alperisib, Alpelisib]
[4]
  solubility: pH-dependent solubility
[5]
  pharmacokinetics in clinical studies: variations in pharmacokinetics

Reference: patent publication US20230364063A1, “ORAL PHARMACEUTICAL COMPOSITION AND METHOD FOR PRODUCING SAME” (ARTham Therapeutics Inc., priority 2020, published 2023)
